The results in this text go back to patent publication US20260232825A1, “LINKER-DRUG MOLECULE AND ANTIBODY DRUG CONJUGATE, PREPARATION METHOD THEREFOR AND USE THEREOF” (SHANGHAI ESCUGEN BIOTECHNOLOGY CO., LTD., priority 2023, published 2026).

Like-named read-outs stand apart in the source and are kept apart here.

Assay [1] has as its system B16F10-hClaudin18.2 cells. In words: Immunogenic cell death of B16F10-hClaudin18.2 cells (Calreticulin/PI FACS). It counts as cell-based. The conditions noted are these: small molecular drug load 10 nM, 48 hours. How it is done:
The B16F10-hClaudin18.2 cells were resuscitated and cultured in a medium of DMEM (Thermo, cat #: 10569044)^+10% FBS (Thermo, Cat #: 10099-141C)+0.5 μg/mL Puromycin to subject to adherent culture at 37° C. in 5% CO2 incubator. When the cell confluence was greater than 80%, the cells were passaged at a ratio of 1:10 to 1:20 every 3-4 days.
When the cells grew to a confluence of about 80%, the cells were digested by a digestive solution of recombinant enzyme (TrypLE™ Express Enzyme, Thermo, cat #: 12605028). Then the cells were resuspended with DMEM+10% FBS, and an appropriate volume was taken for counting. The cell density was adjusted to 1×10^4 cells/mL, and inoculated into 96-well cell plate at 100 μL/well to culture overnight at 37° C. in 5% CO2 incubator. The next day, the ADC drug was diluted with DMEM+10% FBS medium to a final concentration of 750 nM, the small molecule toxin Exatecan was diluted to a final concentration of 10 nM, and sample concentration of 0 was set as blank control. The diluted samples were respectively added to 96-well cell culture plate containing cells at 100 μL/well to incubate at 37° C. in 5% CO2 incubator for 48 hours. […]

Assay [2] deals with HEK293-hClaudin18.2 cells. In words: In vitro cell killing activity, HEK293-hClaudin18.2 cell line (AlamarBlue). Format: cell-based. How it is done:
HEK293-hClaudin18.2 cells were cultured in DMEM medium containing 10% FBS, supplemented with 250 μg/mL G418 to subject to adherent culture at 37° C. in 5% CO2 incubator. When the cell confluence was greater than 80%, the cells were passaged at a ratio of 1:20 to 1:40 every 3 days.
HEK293-hClaudin18.2 cells were digested by a digestive solution of recombinant enzyme (TrypLE™ Express Enzyme). After counting, an appropriate amount of cells were taken to resuspend with DMEM+10% FBS. The cell density was adjusted to 2×10^4 cells/mL, inoculating into 96-well cell culture plate at 100 μL/well. The cells were cultured overnight at 37° C. in 5% CO2 incubator. The next day, 9D1 ADC and small molecular toxin were diluted 10 times in a series from 1000 nM (final concentration, 500 nM) with a total of 7-8 concentration points, simultaneously setting a negative control with a sample concentration of 0, and a blank control containing only same volume (200 μL/well) of medium without cells. The diluted sample was added to 96-well cell culture plate containing cells at 100 μL/well (two duplicated wells), then incubating at 37° C. in 5% CO2 incubator for 72 hours. The cell viability was detected by the AlamarBlue detection method mentioned above, then processing data to calculate the IC50 values, and the results are shown in Table 5 below.
(In general: Resazurin is reduced to fluorescent resorufin, in cell work by metabolically active cells.)

A further assay concerns MC38-hClaudin18.2 cells. In words: In vitro tumor cell killing activity, MC38-hClaudin18.2 cell line (AlamarBlue). It counts as cell-based, mouse. How it is done:
9D1 antibody-drug conjugates prepared in the previous Experimental Examples and Comparative Examples were used for performing in vitro killing test on MC38 cell lines stably expressing human Claudin18.2. MC38-hClaudin18.2 cells were inoculated into a 96-well cell culture plate at 3000 cells/well, adding gradient diluted 9D1 ADCs next day to culture for 48-72 hours. The fluorescence values of each experimental well were detected by AlamarBlue reagent (ThermoFisher, item number DAL1100), and the cell viability was calculated.
When the cell confluence was greater than 80%, the cells were passaged at a ratio of 1:10 to 1:20 every 3 days.
MC38-hClaudin18.2 cells were digested by a digestive solution of recombinant enzyme (TrypLE™ Express Enzyme). […] The cell density was adjusted to 3×10^4 cells/mL, inoculating into 96-well cell culture plate at 100 μL/well. The cells were cultured overnight at 37° C. in 5% C02 incubator. The next day, the test drug was diluted 10 times in a series with a total of 7-8 concentration points, simultaneously setting a blank control with a sample concentration of 0. The diluted sample was added to 96-well cell culture plate containing cells at 100 μL/well, then incubating at 37° C. in 5% CO2 incubator for 48-72 hours. 20 μL of AlamarBlue detection reagent was added to each well, incubating at 37° C. for 4-6 hours, the fluorescence signal intensity was detected on a multifunctional enzyme-linked immunosorbent assay (ELISA) instrument with an excitation wavelength of 560 nm and an emission wavelength of 590 nm.
The cell viability of the blank control was set to 100%, and the cell viability (%) of the experimental well was calculated by the following formula: […]
The detected average cell viability was takedn as the y-axis, a sigmoid dose response (Variable Slope) method (GraphPad Prism software, GraphPad Software, San Diego, California) was used for nonlinear regression to obtain the inhibitory effect curves of cell proliferation, and the corresponding IC50 values (half maximum inhibition concentration) were calculated. […]

In another assay the test system is NUGC4-hClaudin18.2 cells. In words: In vitro tumor cell killing activity, NUGC4-hClaudin18.2 cell line (CCK-8). Format: cell-based. The following applies: Homo sapiens, 120 h, read-out: IC50 values (nM).
For assay [3], the system named is MC38 hClaudin18.2 tumor (high expression of p-gp). In words: Pharmacodynamics in p-gp mediated drug-resistant tumor bearing mouse model. Format: in vivo. The following applies: in words; ADC 10 mg/kg i.p. QW × 2, Tariquidar p.o. QD × 10. How it is done: Modeling and administration of tumor bearing mice: BALB/c Nude mice (female, 5-6 week old) were subcutaneously inoculated with MC38 hClaudin18.2 cells (1×10^6 cells in […]) on the ventral side. When the tumor volume increased to about 120 mm^3, the mice were randomly divided into groups and administered according to Table 10. The tumor and body weight were measured twice a week to calculate the tumor volumes (TV, mm^3) and plot the tumor growth curves. TV (mm^3)=(L×W^2)/2, wherein L represents tumor length, and W represents tumor width. GraphPad Prism software (GraphPad Software, San Diego, California) and XY mode were selected to plot the tumor growth curves and weight curves of mice, and the tumor volumes and weights were represented as mean±standard error.

Experimental for NUGC4-hClaudin18.2 cells: When the cell confluence was greater than 80%, the cells were passaged at a ratio of 1:3 to 1:10 every 3-4 days.
NUGC4-hClaudin18.2 cells were digested by a digestive solution of recombinant enzyme (TrypLE™ Express Enzyme). […] The cell density was adjusted to 3×10^4 cells/mL, inoculating into 96-well cell culture plate at 100 μL/well. The cells were cultured overnight at 37° C. in 5% CO2 incubator. The next day, 9D1 ADC and small molecular toxin were diluted 5 times in a series from 1000 nM (final concentration, 500 nM) with a total of 7-8 concentration points, simultaneously setting a negative control with a sample concentration of 0, and a blank control containing only medium without cells. The diluted sample was added to 96-well cell culture plate containing cells at 100 μL/well (two duplicated wells), then incubating at 37° C. in 5% CO2 incubator for 120 hours. 20 μL of CCK-8 detection reagent (Dongren Chemical, CAS #CK04) was added to each well, incubating at 37° C. for 3-4 hours. The OD values of each well in the ELISA plate were measured at a wavelength of 450 nm and a reference wavelength of 630 nm on a multifunctional enzyme-linked immunosorbent assay (ELISA) reader, for each well, OD value=0D450 nm−OD630 nm. The cell viability of the negative control was set to 100%, and the cell viability (%) of the experimental wells was calculated according to the following formula. […]

Regarding `CC[C@@]1(O)C(=O)OCc2c1cc1n(c2=O)Cc2c-1nc1cc(F)c(C)c3c1c2[C@@H](NC(=O)CO)CC3` [Dxd], the “ratio of Calreticulin(+)/PI(−) cells” value in assay [1] is reported as “significantly raised”.

On to `CC[C@@]1(O)C(=O)OCc2c1cc1n(c2=O)Cc2c-1nc1cc(F)c(C)c3c1c2[C@@H](N)CC3` [Exatecan], for which, in assay [1], the “ratio of Calreticulin(+)/PI(−) cells” value is recorded as “significantly raised”. For the same compound, the IC50 was 0.51 nM in assay [2] (72 h, read-out: IC50 values (nM), HEK293-hClaudin18.2 cells, 72 hours, AlamarBlue); 0.508 nM in assay [2] (read-out: IC50 values, HEK293-hClaudin18.2 cells, 72 hours, AlamarBlue); 4.1 nM in the assay on MC38-hClaudin18.2 cells (Mus musculus, read-out: IC50 values (nM), MC38-hClaudin18.2 cells, 48-72 hours, AlamarBlue); 4.1 nM in the assay with MC38-hClaudin18.2 cells (read-out: IC50 values, MC38-hClaudin18.2 cells, 48-72 hours, AlamarBlue); 2.01 nM in the assay on NUGC4-hClaudin18.2 cells.

For the compound `COc1cc2c(cc1OC)CN(CCc1ccc(NC(=O)c3cc(OC)c(OC)cc3NC(=O)c3cnc4ccccc4c3)cc1)CC2` [Tariquidar], the tumor inhibitory effect entry in assay [3] was “has no tumor inhibitory effect”.

As usually defined, the IC50 is the concentration needed to halve the response being measured.
